Test results published in paper PMC9841576, “Characterisation of C101248: A novel selective THIK-1 channel inhibitor for the modulation of microglial NLRP3-inflammasome” (Neuropharmacology, 2023).
Like-named read-outs stand apart in the source and are kept apart here.

Legend:
[1] = target: T1, mouse THIK-1 (Mus musculus, UniProt Q8R1P5); assay: FLIPR thallium influx assay, HEK-mTHIK-1 cells; type: cell-based
T1 construct: expressed in transfected cells
T1 sequence (Q8R1P5 1-405): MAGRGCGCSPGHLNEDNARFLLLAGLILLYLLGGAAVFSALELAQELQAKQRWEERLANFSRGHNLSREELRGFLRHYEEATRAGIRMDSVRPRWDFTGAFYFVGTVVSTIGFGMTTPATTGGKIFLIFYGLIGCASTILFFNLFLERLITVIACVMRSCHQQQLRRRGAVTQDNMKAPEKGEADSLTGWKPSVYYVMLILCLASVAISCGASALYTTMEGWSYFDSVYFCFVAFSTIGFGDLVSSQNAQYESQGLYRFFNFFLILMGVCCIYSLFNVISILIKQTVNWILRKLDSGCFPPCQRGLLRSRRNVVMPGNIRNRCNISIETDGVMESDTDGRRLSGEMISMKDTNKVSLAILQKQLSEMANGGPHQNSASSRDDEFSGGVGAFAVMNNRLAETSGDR
Protocol: HEK-293 cells were transfected with human THIK-1, TREK-1, TWIK-2, or mouse THIK-1 cDNA cloned into pcDNA3.1, using either Fugene HD transfection reagent (Promega) or electroporation (MaxCyte STX instrument). Cells stably expressing the relevant genes were selected based on resistance to 500 μg/ml geneticin (Gibco). For human THIK-1 and TWIK-2 expressing cells, monoclonal lines were isolated by limited dilution cloning; mouse THIK-1 and human TREK-1 expressing cells were maintained as polyclonal pools. The HEK-293 pools and monoclones stably expressing the relevant genes were maintained in DMEM (Life Technologies), supplemented with 10% FCIII (HyClone, Fetal clone III) and 500 μg/ml geneticin. A CHO-Kv2.1 cell line was purchased from Millipore (accession NM_004975) and maintained in F12 (Life Technologies), supplemented with 10% FCSIII (Thermo Scientific) and 500 μg/ml geneticin (Life Technologies). For thallium flux assays, banks of frozen cell aliquots were prepared the day prior to assay, cells were thawed into media and seeded into PDL coated 384-well plates (Corning) at 25,000 (human/mouse THIK-1, TREK-1) or 30,000 (TWIK-2) cells/well (25 μl/well). CHO-Kv2.1 cells were seeded into non-PDL coated plates (Corning) at 5000 cells/well. Plated cells were incubated overnight at 37 °C, 5% CO2 in a humidified atmosphere. For Q-Patch assays, cells were cultured for 7 days prior to assay, dissociated, and diluted to 1–2.5 million/ml in EX-CELL ACF serum free media containing HEPES (25 mM; Life Technologies), penicillin/streptomycin (100 U/ml, 100 μg/ml; Life Technologies) and a trypsin inhibitor (0.04 mg/ml).
A fluorescence-based thallium influx assay (Molecular Devices potassium assay kit) was used to monitor channel activity. […] Using a fluorescent imaging plate reader (FLIPR) tetra plate reader, 15 μl thallium stimulus solution was added to the cell plate and the fluorescence signal recorded every second for 1 min (excitation: 470–495 nm, emission: 515–575 nm).

[2] = target: Adrenergic β2 (Homo sapiens, UniProt P07550); assay: Promiscuity screening panel, radiometric binding; details: read-out: % inhibition at 10 µM (n=2)
Protocol: (§1) C101248 was further profiled in a promiscuity screening panel, using radiometric binding assays, against a selection of 18 diverse targets at 10 μM (Supplementary Table 2).
(§2) Supplementary Table 2: Promiscuity screening panel data for C101248. Compound was screened at 10 µM, in duplicate, using radiometric binding assays

[3] = target: Calcium Channel CaV1.2 (Homo sapiens, UniProt Q13936); assay: Promiscuity screening panel, radiometric binding; details: read-out: % inhibition at 10 µM (n=2)
Protocol: as §1, §2

[4] = target: Cannabinoid CB1 (Homo sapiens, UniProt P21554); assay: Promiscuity screening panel, radiometric binding; details: read-out: % inhibition at 10 µM (n=2)
Protocol: as §1, §2

[5] = target: Cannabinoid CB2 (Homo sapiens, UniProt P34972); assay: Promiscuity screening panel, radiometric binding; details: read-out: % inhibition at 10 µM (n=2)
Protocol: as §1, §2

[6] = target: Dopamine D1 (Homo sapiens, UniProt P21728); assay: Promiscuity screening panel, radiometric binding; details: read-out: % inhibition at 10 µM (n=2)
Protocol: as §1, §2

[7] = system: GABAA, Flunitrazepam, Central; assay: Promiscuity screening panel, radiometric binding; details: Rat
Protocol: as §1, §2

[8] = target: Histamine H1 (Homo sapiens, UniProt P35367); assay: Promiscuity screening panel, radiometric binding; details: read-out: % inhibition at 10 µM (n=2)
Protocol: as §1, §2

[9] = target: Muscarinic M1 (Homo sapiens, UniProt P11229); assay: Promiscuity screening panel, radiometric binding; details: read-out: % inhibition at 10 µM (n=2)
Protocol: as §1, §2

[10] = target: Opiate μ (OP3, MOP) (Homo sapiens, UniProt P35372); assay: Promiscuity screening panel, radiometric binding; details: read-out: % inhibition at 10 µM (n=2)
Protocol: as §1, §2

[11] = system: Phosphodiesterase PDE3; assay: Promiscuity screening panel, radiometric binding; details: Phosphodiesterase PDE3, Human
Protocol: as §1, §2

[12] = system: Sodium Channel, Site 2; assay: Promiscuity screening panel, radiometric binding; details: Site 2, Rat
Protocol: as §1, §2

[13] = target: Transporter, Norepinephrine (NET) (Homo sapiens, UniProt P23975); assay: Promiscuity screening panel, radiometric binding; details: read-out: % inhibition at 10 µM (n=2)
Protocol: as §1, §2

[14] = target: Transporter, Serotonin (5-Hydroxytryptamine) (SERT) (Homo sapiens, UniProt P31645); assay: Promiscuity screening panel, radiometric binding; details: read-out: % inhibition at 10 µM (n=2)
Protocol: as §1, §2

Sequence of Cannabinoid CB1 (P21554 whole entry): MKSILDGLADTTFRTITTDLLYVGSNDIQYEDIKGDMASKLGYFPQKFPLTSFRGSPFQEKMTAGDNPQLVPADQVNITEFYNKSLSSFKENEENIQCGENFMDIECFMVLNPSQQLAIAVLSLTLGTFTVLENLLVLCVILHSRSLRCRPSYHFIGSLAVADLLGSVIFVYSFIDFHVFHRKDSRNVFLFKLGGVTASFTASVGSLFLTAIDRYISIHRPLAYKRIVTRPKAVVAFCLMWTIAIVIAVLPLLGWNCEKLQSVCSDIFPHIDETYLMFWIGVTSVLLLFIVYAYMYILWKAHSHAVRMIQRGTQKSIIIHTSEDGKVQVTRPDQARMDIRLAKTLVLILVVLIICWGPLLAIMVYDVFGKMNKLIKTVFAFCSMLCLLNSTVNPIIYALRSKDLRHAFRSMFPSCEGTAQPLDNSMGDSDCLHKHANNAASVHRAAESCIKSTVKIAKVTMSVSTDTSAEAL
Sequence of Opiate μ (OP3, MOP) (P35372 whole entry): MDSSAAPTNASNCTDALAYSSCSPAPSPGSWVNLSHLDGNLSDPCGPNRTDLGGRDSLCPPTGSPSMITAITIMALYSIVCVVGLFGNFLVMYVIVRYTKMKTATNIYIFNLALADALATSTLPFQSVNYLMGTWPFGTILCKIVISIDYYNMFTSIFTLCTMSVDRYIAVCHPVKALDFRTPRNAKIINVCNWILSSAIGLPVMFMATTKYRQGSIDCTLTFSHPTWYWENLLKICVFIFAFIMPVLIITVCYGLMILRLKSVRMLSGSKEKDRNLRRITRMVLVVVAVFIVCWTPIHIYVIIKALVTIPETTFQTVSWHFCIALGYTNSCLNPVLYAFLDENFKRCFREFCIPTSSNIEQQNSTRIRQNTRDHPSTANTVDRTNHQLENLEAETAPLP
Sequence of Histamine H1 (P35367 whole entry): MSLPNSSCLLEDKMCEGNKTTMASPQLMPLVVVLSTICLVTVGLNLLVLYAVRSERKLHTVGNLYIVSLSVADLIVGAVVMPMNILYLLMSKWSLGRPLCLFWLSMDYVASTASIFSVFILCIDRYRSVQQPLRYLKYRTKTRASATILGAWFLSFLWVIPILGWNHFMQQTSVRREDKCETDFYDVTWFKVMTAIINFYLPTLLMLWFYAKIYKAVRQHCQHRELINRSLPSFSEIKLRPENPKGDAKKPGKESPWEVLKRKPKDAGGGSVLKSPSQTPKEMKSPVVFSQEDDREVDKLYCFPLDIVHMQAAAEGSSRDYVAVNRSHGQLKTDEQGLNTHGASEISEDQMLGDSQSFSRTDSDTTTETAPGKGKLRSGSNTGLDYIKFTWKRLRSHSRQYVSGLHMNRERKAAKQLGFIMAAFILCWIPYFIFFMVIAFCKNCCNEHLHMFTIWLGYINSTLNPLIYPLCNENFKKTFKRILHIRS
Sequence of Transporter, Serotonin (5-Hydroxytryptamine) (SERT) (P31645 whole entry): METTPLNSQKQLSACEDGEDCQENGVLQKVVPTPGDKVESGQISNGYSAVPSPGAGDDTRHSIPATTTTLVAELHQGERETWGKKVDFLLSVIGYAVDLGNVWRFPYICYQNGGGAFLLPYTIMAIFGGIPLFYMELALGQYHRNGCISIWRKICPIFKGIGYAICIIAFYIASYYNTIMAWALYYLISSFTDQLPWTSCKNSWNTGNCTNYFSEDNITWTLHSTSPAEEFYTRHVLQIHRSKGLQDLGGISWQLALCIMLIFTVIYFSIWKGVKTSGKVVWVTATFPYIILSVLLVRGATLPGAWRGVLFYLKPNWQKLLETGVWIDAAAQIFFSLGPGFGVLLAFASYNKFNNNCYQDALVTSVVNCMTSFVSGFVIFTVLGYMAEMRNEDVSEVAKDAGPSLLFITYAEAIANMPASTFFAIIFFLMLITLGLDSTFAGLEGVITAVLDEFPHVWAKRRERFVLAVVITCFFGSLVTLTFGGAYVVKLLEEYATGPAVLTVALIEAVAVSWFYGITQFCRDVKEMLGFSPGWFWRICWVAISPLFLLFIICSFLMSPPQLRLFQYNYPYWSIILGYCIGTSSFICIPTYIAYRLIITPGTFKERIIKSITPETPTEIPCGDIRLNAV
Sequence of Muscarinic M1 (P11229 whole entry): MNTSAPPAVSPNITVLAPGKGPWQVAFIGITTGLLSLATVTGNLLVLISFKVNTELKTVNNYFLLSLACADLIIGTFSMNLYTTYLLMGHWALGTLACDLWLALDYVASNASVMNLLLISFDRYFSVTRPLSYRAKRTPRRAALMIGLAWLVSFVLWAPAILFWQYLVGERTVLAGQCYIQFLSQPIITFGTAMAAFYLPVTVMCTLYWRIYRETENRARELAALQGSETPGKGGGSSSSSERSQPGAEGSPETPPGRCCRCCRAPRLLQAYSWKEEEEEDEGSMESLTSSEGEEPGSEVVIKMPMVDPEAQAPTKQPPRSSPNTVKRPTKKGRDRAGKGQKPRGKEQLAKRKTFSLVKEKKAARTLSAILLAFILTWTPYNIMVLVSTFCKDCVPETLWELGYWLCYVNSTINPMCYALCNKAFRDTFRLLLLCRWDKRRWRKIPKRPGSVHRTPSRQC
Sequence of Adrenergic β2 (P07550 whole entry): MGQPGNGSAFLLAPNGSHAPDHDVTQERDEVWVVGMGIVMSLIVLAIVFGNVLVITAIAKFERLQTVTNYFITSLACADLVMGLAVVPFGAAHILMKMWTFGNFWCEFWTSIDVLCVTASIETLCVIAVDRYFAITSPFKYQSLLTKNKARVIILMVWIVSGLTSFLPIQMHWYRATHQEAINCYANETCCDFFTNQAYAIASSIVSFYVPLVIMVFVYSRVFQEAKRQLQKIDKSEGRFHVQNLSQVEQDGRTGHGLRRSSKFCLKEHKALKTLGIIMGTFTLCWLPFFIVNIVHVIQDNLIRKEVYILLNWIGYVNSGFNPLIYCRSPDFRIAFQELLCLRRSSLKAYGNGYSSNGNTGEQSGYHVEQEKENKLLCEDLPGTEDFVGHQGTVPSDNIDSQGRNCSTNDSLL
Sequence of Transporter, Norepinephrine (NET) (P23975 whole entry): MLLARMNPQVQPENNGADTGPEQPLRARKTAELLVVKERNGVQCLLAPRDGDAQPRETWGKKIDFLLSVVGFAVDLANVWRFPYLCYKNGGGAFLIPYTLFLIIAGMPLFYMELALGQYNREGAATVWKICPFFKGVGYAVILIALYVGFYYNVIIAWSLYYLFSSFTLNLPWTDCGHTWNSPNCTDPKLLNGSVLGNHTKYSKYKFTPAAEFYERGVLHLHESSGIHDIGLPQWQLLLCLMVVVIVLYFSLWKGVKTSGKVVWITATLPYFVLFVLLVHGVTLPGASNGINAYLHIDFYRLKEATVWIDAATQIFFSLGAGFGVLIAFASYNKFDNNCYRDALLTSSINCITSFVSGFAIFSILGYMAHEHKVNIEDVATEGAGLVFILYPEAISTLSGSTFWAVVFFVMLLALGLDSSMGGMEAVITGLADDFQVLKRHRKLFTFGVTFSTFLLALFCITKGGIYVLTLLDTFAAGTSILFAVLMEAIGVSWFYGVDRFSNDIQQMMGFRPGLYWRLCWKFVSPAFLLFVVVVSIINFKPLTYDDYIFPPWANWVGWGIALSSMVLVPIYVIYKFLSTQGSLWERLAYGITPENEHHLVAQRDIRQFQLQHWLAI
Sequence of Cannabinoid CB2 (P34972 whole entry): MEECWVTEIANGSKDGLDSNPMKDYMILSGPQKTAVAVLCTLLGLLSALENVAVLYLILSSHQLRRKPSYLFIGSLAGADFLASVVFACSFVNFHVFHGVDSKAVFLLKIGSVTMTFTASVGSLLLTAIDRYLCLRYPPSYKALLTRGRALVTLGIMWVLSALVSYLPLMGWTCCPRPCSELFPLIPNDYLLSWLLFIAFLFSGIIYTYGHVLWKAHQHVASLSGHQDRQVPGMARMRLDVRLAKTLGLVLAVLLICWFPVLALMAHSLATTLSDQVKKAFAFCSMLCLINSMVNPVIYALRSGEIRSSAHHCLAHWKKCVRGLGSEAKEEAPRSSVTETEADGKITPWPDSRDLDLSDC
Sequence of Dopamine D1 (P21728 whole entry): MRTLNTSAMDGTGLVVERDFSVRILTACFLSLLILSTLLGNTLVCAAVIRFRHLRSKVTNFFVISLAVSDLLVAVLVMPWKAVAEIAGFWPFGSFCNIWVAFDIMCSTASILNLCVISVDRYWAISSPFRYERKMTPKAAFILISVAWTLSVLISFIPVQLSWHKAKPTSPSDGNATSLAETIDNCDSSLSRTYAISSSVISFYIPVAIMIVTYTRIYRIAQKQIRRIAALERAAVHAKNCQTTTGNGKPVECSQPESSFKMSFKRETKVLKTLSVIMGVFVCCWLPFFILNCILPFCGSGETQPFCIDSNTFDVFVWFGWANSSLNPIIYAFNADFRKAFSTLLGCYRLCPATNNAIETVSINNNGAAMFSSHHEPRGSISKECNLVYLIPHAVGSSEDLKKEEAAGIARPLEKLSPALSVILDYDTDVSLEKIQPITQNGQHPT

**Q.** `Nc1nonc1-c1nc2ccccc2n1Cc1ccncc1` [C101248] was tested. Which IC50 ([1]; HEK-mTHIK-1, normalised to TPA controls, read-out: IC50, mouse THIK-1 (thallium influx)) did it give?
**A.** 49 nM

**Q.** What about the maximum inhibition ([1]; HEK-mTHIK-1, thallium influx) of the same molecule?
**A.** 100%

**Q.** What about the IC50 ([1]; mouse THIK-1, read-out: IC50, inhibition of mouse THIK-1 (abstract)) of the same molecule?
**A.** ~50 nM

**Q.** And the inhibition at 10 µM [2]?
**A.** 15%

**Q.** And the inhibition at 10 µM [3]?
**A.** 12%

**Q.** And the inhibition at 10 µM [4]?
**A.** 22%

**Q.** What about the inhibition at 10 µM [5] of the same molecule?
**A.** 0%

**Q.** What about the inhibition at 10 µM [6] of the same molecule?
**A.** -1%

**Q.** What about the “% inhibition at 10 µM (n=2)” value [7] of the same molecule?
**A.** -9%

**Q.** What about the inhibition at 10 µM [8] of the same molecule?
**A.** 21%

**Q.** What about the inhibition at 10 µM [9] of the same molecule?
**A.** -3%

**Q.** And the inhibition at 10 µM [10]?
**A.** -9%

**Q.** What about the “% inhibition at 10 µM (n=2)” value [11] of the same molecule?
**A.** 1%

**Q.** What about the “% inhibition at 10 µM (n=2)” value [12] of the same molecule?
**A.** 2%

**Q.** And the inhibition at 10 µM [13]?
**A.** 23%

**Q.** What about the inhibition at 10 µM [14] of the same molecule?
**A.** -7%
